Where a name gives a salt, the structure may show the parent alone.
What was measured:
[1] = In vivo fluorescence imaging (biodistribution after oral dose); design: species or system BALB/c mice
Method: To observe the biodistribution of sublancin in vivo, sublancin was labeled with the near-infrared dye Cy7 monoreactive NHS ester (Invitrogen, CA, USA). Female BALB/c mice of 6–8 weeks old were given an oral dose of 100 μL Cy7-stained sublancin or free Cy7. At the indicated time points (0 h, 30 min, 2 h, 6 h, 12 h, 24 h, and 48 h), mice were anesthetized with 2.5% isoflurane and then placed in the in vivo Imaging System (FXPro Kodak). The excitation and emission bandpass filter was 730 nm and 790 nm, respectively. Fluorescence signals were collected by Carestream Molecular Imaging Software. At 12 h, mice were euthanized and the ex vivo optical images of the intestine, heart, liver, spleen, lung, and kidney were recorded using the same system.

[2] = system: IL-1β mRNA; assay: IL-1β gene expression in peritoneal macrophages after oral administration (real-time PCR); format: in vivo, BALB/c mice; details: oral 2.5 mg/kg BW/d for 7 days, vs control, P < 0.05, n = 6
[3] = system: IL-6 mRNA; assay: IL-6 gene expression in peritoneal macrophages after oral administration (real-time PCR); format: in vivo, BALB/c mice; details: oral 2.5 mg/kg BW/d for 7 days, vs control, P < 0.05, n = 6
[4] = system: TNF-α mRNA; assay: TNF-α gene expression in peritoneal macrophages after oral administration (real-time PCR); format: in vivo, BALB/c mice; details: oral 2.5 mg/kg BW/d for 7 days, vs control, P < 0.05, n = 6
[5] = Peripheral hemogram analysis in cyclophosphamide-treated mice; format: in vivo, BALB/c mice; details: gavage 10.0 mg/kg for 7 days, compared with the NC treatment (so in the source), n = 6

Fluorescence in the excised intestine (ex vivo images) ([1]; 12 h after gavage)	Fluorescent signal in the heart, liver, spleen, lung, and kidney (ex vivo images) ([1]; 12 h after gavage)	Presence in the intestine (in vivo fluorescence) ([1]; oral dose of 100 μL, twelve hours after administration)	Fluorescent signal in vivo ([1]; oral dose of 100 μL, within 6 h)	Structure (SMILES)	Gene expression level of IL-1β in peritoneal macrophages [2]	Gene expression level of IL-6 in peritoneal macrophages [3]	Gene expression level of TNF-α in peritoneal macrophages [4]	HGB [5]	Number of RBC [5]	Number of WBC [5]	Number of platelets [5]
only very little	Almost no fluorescent signal	most of the free Cy7 had disappeared	weak fluorescent signals	CCN1C(=CC=CC=CC=CC2=[N+](CCCCCC(=O)O)c3ccc(S(=O)(=O)O)cc3C2(C)C)C(C)(C)c2cc(S(=O)(=O)[O-])ccc21 [free Cy7]							
				c1ccc([C@H]2CN3CCSC3=N2)cc1 [levamisole hydrochloride]	higher than that in the control group	higher than that in the control group	higher than that in the control group	higher	higher	higher	higher

Source: publication PMC5964538, “Prevention of Cyclophosphamide-Induced Immunosuppression in Mice with the Antimicrobial Peptide Sublancin” (Journal of Immunology Research, 2018)
